# In US9889146B2, “Benzoxaborole compounds and uses thereof” (priority 2012, dated 2018):
# Several values for one entry are separate records, joined by “and”; a condition that tells them apart may be missing. Identical values can stand only once. Entries after “also recorded” stand apart in the source; their conditions may differ.
# Tests used:
# [1] = system: E. coli 1162222 (standard strain) and clinical isolate 1a of E. coli; experiment: Frequency of spontaneous resistance to GSK2251052 in the presence of norvaline; format: cell-based, Escherichia coli
# Procedure: Clinical strains of Escherichia coli and Proteus mirabilis isolated from the above-described clinical trial study (Table 12), along with other E. coli strains were used to measure the suppression of the emergence of resistant bacterial strains in vitro and to determine the susceptibility of these GSK2251052 resistant bacterial isolates to norvaline.
# GSK2251052 and norvaline were prepared at a concentration of 6.4 mg/mL (free base) in 100% DMSO and 100% water respectively, aliquoted in 0.5 mL individual stocks, and stored at −20° C. until required.
# Plates were poured and left to cool and solidify.
# Cultures were prepared by inoculating broth with a bacterial suspension in saline, prepared from plates derived from individual colonies. For each organism, 100 mL of CAMHB was inoculated with 5 mL of a bacterial suspension with turbidity equivalent to 0.5 McFarland. These cultures were incubated on an orbital shaker at 37° C. until the broth was visibly turbid (approximately 3 hours). Following incubation, cultures were centrifuged at 11,000 g for 10 min at 4° C. The culture media was then decanted and cell pellets were resuspended to an appropriate cell concentration in fresh CAMHB or M9. The ratio of OD625 to CFU/mL used to approximate culture size is 0.1:1.0×10^8. Targeted E. coli cell concentrations were 2×10^9 CFU/mL.
# Viable counts were performed to determine the concentration of the initial test inoculum using the following steps: 1) ten-fold serial dilutions of each sample were prepared; 2) three 20 μL aliquots from wells corresponding to 10^−5, […], 10^−7 and 10^−8 dilutions were plated onto the appropriate agar plates; 3) the plates were incubated overnight at 35° C. and counts were performed at the dilution that provided distinguishable colonies; 4) an average of the three aliquots was used to determine the number of colony forming units (CFU) in the original sample.
# In addition, 100 μL of each cell suspension was spread onto the surface of plates containing the appropriate multiple of MIC concentration of compound and a control agar plate containing no compound. Plates were incubated at 35° C. in ambient air.
# Colonies were counted after 24, 48 and 72 hours. […] In order to confirm their resistance phenotype, the susceptibility of these isolates to the selecting agent was tested by broth microdilution methodology.
# The frequency of spontaneous resistance was calculated by dividing the total number of resistant colonies growing on plates containing antibiotic by the total number of colony forming units plated. In order to confirm the resistance phenotype, the MIC of the selecting agent was determined against a representative number of colonies from each antibiotic concentration/strain combination. […] The total number of resistant colonies on the plates was extrapolated from the representative set tested.
# K. pneumoniae ATCC 13883 = experiment: Spontaneous frequency of resistance; format: cell-based; conditions: 4 X MIC, 24 h
# Outline: (§1)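 Resistant mutants selected by plating varying inocula on MHBII noble agar with 4× or 10× MIC of GSK2251052, 24 and 48 h at 37 °C; resistance confirmed by regrowth on drug plates. Frequency = resistant colonies ÷ total cells plated, counted from dilutions of overnight culture on LB.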
# E. coli ATCC 25922 = experiment: Spontaneous frequency of resistance; format: cell-based; conditions: 10 X MIC, 24 h
# Outline: as §1
# P. aeruginosa ATCC 27853 = experiment: Spontaneous frequency of resistance; format: cell-based; conditions: 24 h
# Outline: as §1
structure (smiles),measurement,setting,value
"NC[C@H]1OB(O)c2c(OCCCO)cccc21 [GSK2251052, (S)-3-aminomethyl-7-(3-hydroxy-propoxy)-3h-benzo[c][1,2]oxaborol-1-ol]",Frequency of Resistant to GSK2251052 (4 μg/mL),"[1]; CAMH Agar, E. coli Isolate 1a, Norvaline 0 μg/mL",6.3 × 10^−8
same,Frequency of Resistant to GSK2251052 (4 μg/mL),"[1]; CAMH Agar, E. coli Isolate 1a, Norvaline 2 μg/mL",7.6 × 10^−8
same,Frequency of Resistant to GSK2251052 (4 μg/mL),"[1]; CAMH Agar, E. coli Isolate 1a, Norvaline 4 μg/mL",4.7 × 10^−8
same,Frequency of Resistant to GSK2251052 (4 μg/mL),"[1]; CAMH Agar, E. coli Isolate 1a, Norvaline 8 μg/mL",6.3 × 10^−8
same,Frequency of Resistant to GSK2251052 (4 μg/mL),"[1]; CAMH Agar, E. coli Isolate 1a, Norvaline 16 μg/mL",4.5 × 10^−8
same,Frequency of Resistant to GSK2251052 (4 μg/mL),"[1]; CAMH Agar, E. coli Isolate 1a, Norvaline 32 μg/mL",5.0 × 10^−8
same,Frequency of Resistant to GSK2251052 (4 μg/mL),"[1]; CAMH Agar, E. coli Isolate 1a, Norvaline 64 μg/mL",5.3 × 10^−8
same,Frequency of Resistant to GSK2251052 (4 μg/mL),"[1]; CAMH Agar, E. coli baseline strain, Norvaline 0 μg/mL",1.2 × 10^−7
same,Frequency of Resistant to GSK2251052 (4 μg/mL),"[1]; CAMH Agar, E. coli baseline strain, Norvaline 2 μg/mL",5.0 × 10^−8
same,Frequency of Resistant to GSK2251052 (4 μg/mL),"[1]; CAMH Agar, E. coli baseline strain, Norvaline 4 μg/mL",1.2 × 10^−7
same,Frequency of Resistant to GSK2251052 (4 μg/mL),"[1]; CAMH Agar, E. coli baseline strain, Norvaline 8 μg/mL",6.8 × 10^−8
same,Frequency of Resistant to GSK2251052 (4 μg/mL),"[1]; CAMH Agar, E. coli baseline strain, Norvaline 16 μg/mL",6.1 × 10^−8
same,Frequency of Resistant to GSK2251052 (4 μg/mL),"[1]; CAMH Agar, E. coli baseline strain, Norvaline 32 μg/mL",1.1 × 10^−7
same,Frequency of Resistant to GSK2251052 (4 μg/mL),"[1]; CAMH Agar, E. coli baseline strain, Norvaline 64 μg/mL",9.3 × 10^−8
same,Frequency of Resistant to GSK2251052 (4 μg/mL),"[1]; M9 Agar, E. coli Isolate 1a, Norvaline 0 μg/mL",3.8×10^−7
same,Frequency of Resistant to GSK2251052 (4 μg/mL),"[1]; M9 Agar, E. coli Isolate 1a, Norvaline 2 μg/mL",4.8×10^−8
same,Frequency of Resistant to GSK2251052 (4 μg/mL),"[1]; M9 Agar, E. coli Isolate 1a, Norvaline 4 μg/mL",<1.7 × 10^−9
same,Frequency of Resistant to GSK2251052 (4 μg/mL),"[1]; M9 Agar, E. coli Isolate 1a, Norvaline 8 μg/mL",<1.7 × 10^−9
same,Frequency of Resistant to GSK2251052 (4 μg/mL),"[1]; M9 Agar, E. coli Isolate 1a, Norvaline 16 μg/mL",<1.7 × 10^−9
same,Frequency of Resistant to GSK2251052 (4 μg/mL),"[1]; M9 Agar, E. coli Isolate 1a, Norvaline 32 μg/mL",<1.7 × 10^−9
same,Frequency of Resistant to GSK2251052 (4 μg/mL),"[1]; M9 Agar, E. coli Isolate 1a, Norvaline 64 μg/mL",<1.7 × 10^−9
same,Frequency of Resistant to GSK2251052 (4 μg/mL),"[1]; M9 Agar, E. coli baseline strain, Norvaline 0 μg/mL",4.9×10^−8
same,Frequency of Resistant to GSK2251052 (4 μg/mL),"[1]; M9 Agar, E. coli baseline strain, Norvaline 2 μg/mL",2.8 × 10^−8
same,Frequency of Resistant to GSK2251052 (4 μg/mL),"[1]; M9 Agar, E. coli baseline strain, Norvaline 4 μg/mL",2.0 × 10^−8
same,Frequency of Resistant to GSK2251052 (4 μg/mL),"[1]; M9 Agar, E. coli baseline strain, Norvaline 8 μg/mL",6.0 × 10^−8
same,Frequency of Resistant to GSK2251052 (4 μg/mL),"[1]; M9 Agar, E. coli baseline strain, Norvaline 16 μg/mL",3.0 × 10^−9
same,Frequency of Resistant to GSK2251052 (4 μg/mL),"[1]; M9 Agar, E. coli baseline strain, Norvaline 32 μg/mL",<1.0 × 10^−9
same,Frequency of Resistant to GSK2251052 (4 μg/mL),"[1]; M9 Agar, E. coli baseline strain, Norvaline 64 μg/mL",<1.0 × 10^−9
same,decrease in the frequency of resistance to GSK2251052,"[1]; M9 minimal media, E. coli baseline strain, no norvaline versus >32 μg/mL",≥ 50 fold
same,decrease in the frequency of spontaneous resistance,"[1]; M9 minimal media, E. coli clinical isolate from subject E. coli 1, no norvaline versus >4 μg/mL",over 200 fold
same,effect of norvaline on frequency of resistance in rich media,"[1]; both E. coli strains, rich media, GSK2251052 4 μg/mL, norvaline up to 64 μg/mL",remained the same; also recorded: did not change the frequency of spontaneous resistance
same,frequency of resistance to GSK2251052,"[1]; minimal media, E. coli clinical isolate 1a, norvaline ≧4 μg/mL",< 1.7×10^−9
same,reduction of the appearance of mutants,"[1]; minimal media, baseline E. coli strain, norvaline at 8 μg/mL",10 fold
same,frequency of resistance to GSK2251052,"[1]; minimal media, baseline E. coli strain, norvaline ≧32 μg/mL",< 1×10^−9
same,Frequency of Resistance,K. pneumoniae ATCC 13883,4 × 10^−8 and 5 × 10^−8 and 8 × 10^−7
same,Frequency of Resistance,E. coli ATCC 25922,8 × 10^−8 and 6 × 10^−8 and 7 × 10^−8
same,Frequency of Resistance,P. aeruginosa ATCC 27853; 4 X MIC,1 × 10^−7 and 2 × 10^−7
same,Frequency of Resistance,P. aeruginosa ATCC 27853; 10 X MIC,5 × 10^−8 and 9.6 × 10^−8
